Results reported in patent US12162935B2, “Regimens, compositions and methods with capsaicin and TNF-alpha inhibitor” (priority 2018, dated 2024).

Legend:
[1] = tested on: Wistar rats; assay: ABR threshold shifts, noise induced hearing loss (NIHL); type: in vivo, rat
Description: Male Wistar rats (150-250 gm) were used for this study under an animal care protocol approved by the Laboratory and Animal Care and Use Committee (SIU School of Medicine). Pre-treatment ABRs were performed. Animals were then treated according to the experimental paradigm. Prevention strategy: consisted of administration of ETA either intra-tympanic ally (IT) (250 μg/50 μl) or subcutaneously (sc) (3 mg/kg) or PBS (IT-50 μl or sc-1 ml) either 3 days or 7 days prior to noise exposure (NE).
Animals were exposed to noise (NE), and then provided ETA treatments either IT or SC at either 2 h or 24 h post noise injury. Post treatment ABR thresholds were determined at 21 days post noise exposure and cochleae were excised for morphological, molecular and biochemical studies. Cochleae used for RNA preparations were flushed immediately with RNA later and kept in RNA later for 24 h at 4° C. Those used for immunohistochemical studies were perfused and fixed with 4% paraformaldehyde, while those used for Scanning electron microscopy (SEM) were perfused and fixed with 2.5% glutaraldehyde. Cochleae used for whole mounts were decalcified for 7-10 days in 100 mM EDTA at room temperature.
Male Wistar rats were exposed to octave band noise at 122 dB centered at 16 kHz for 1 h under isofluorane anesthesia, with the 3 inch silicon tubes attached to the high frequency transducer resting in the middle ear cavity. This exposure typically results in a 30-50 dB temporary threshold shift (measured as an immediate pre-to-post noise exposure shift in ABR thresholds) across all frequencies; with slightly more elevation at those frequencies around 16 kHz and 20-40 dB permanent threshold shift measured at 21 days post noise exposure at all frequencies. Acoustic stimuli are calibrated using a cloth model rat and a Bruel & Kjaer Pulse System with a ½ inch free-field microphone (B&K model 4191). Baseline noise levels in the test chamber (with background test noise turned off) are typically measured below 20 dB SPL in the 4-40 kHz range.
Pre-treatment ABR thresholds were determined using the high frequency Intelligent Hearing Systems (IHS) on naive rats prior to any treatment or noise exposure for each ear. Animals were tested with a stimulus intensity series that was initiated at 0 dB sound pressure level (SPL) and reached a maximum at 90 dB SPL. The stimulus intensity levels were increased in 10 dB increments, and the evoked ABR waveforms were observed on a video monitor. The auditory stimuli included tone bursts at 8, 16, and 32 kHz with a 10 msec plateau and a 1 msec rise/fall time presented at a rate of 5/sec. Threshold was defined as the lowest intensity capable of evoking a reproducible, visually detectable response with two distinct waveforms and minimum amplitude of 0.5 μV.
Preconditioning of the TRPV1 receptor in the rat cochlea by oral administration of capsaicin is shown here to protect from NIHL. Male Wistar rats weighing 200-250 gms were used. ABRs from naïve rats were recorded. Rats were then treated with oral phosphate buffered saline (PBS—1 ml) or capsaicin (1 ml of 20 mg/ml) starting 24 hrs prior to NE, on the day of NE, and 24 hrs post NE. The final ABRs were recorded 21 days post NE. Cochleae were collected for various biochemical tests and immunohistochemistry. At least 6 animals were used per treatment group. NE caused an ABR threshold shift of 21.6±1.7, 35.5±1.9 and 43.9±2.3 dB threshold shift at 8, 16 and 32 kHz respectively. Oral capsaicin treatment completely protects from NIHL (3.9±1.4, 6.1±1.8 and 8.9±2.1 dB threshold shift at 8, 16 and 32 kHz respectively), there is no significant change in ABR threshold shift compared to control. […] Statistical significance was calculated using one way ANOVA with Tukey's post-hoc analyses, p<0.05 (FIG. 16.A.).
ABR measurements were conducted in naïve male Wistar rats. […]

[2] = tested on: rat cochlea; assay: Cochlear gene expression by qPCR after noise exposure; type: in vivo
Description: Cochleae were pared down to the bone, crushed in liquid nitrogen followed by extraction in 500 μl of TRI reagent. 0.1 ml of chloroform was added, and the tube was shaken vigorously for 15 seconds and centrifuged at 12,000×g for 15 min. RNA was extracted by washing the pellet with 0.5 ml ice-cold isopropanol followed by cold 75% treated ethanol. The ethanol was removed and the tube was air dried briefly. The RNA pellet was resuspended in nuclease free water and RNA levels were determined using optical density readings corresponding to wavelengths of 260 nm, 280 and 320 nm using a spectrophotometer (Eppendorf BioPhotometer, Hamburg, Germany).
500 ng of total RNA was converted to cDNA using iScript cDNA Synthesis Kit (Bio-Rad, Hercules, CA). The reaction mixture was set up as follows: Ing of total RNA, 4 μl of iScript reaction mix, 1 μl of iScript reverse transcriptase, nuclease free water to bring the total volume to 20 μl. The reaction mix was incubated at 25° C. for 5 min, 42° C. for 30 minutes and 85° C. for 5 minutes. This cDNA reaction mix was used for real time PCR, as described previously [Mukherjea et al., 2006]. Gene specific primer pairs were used for the various reactions and mRNA expression levels were normalized to the levels of GAPDH. The primer sets were purchased from Sigma Genosys (St. Louis, MO), and were as follows: […]

[3] = tested on: Wistar rats; assay: Restoration of hearing after permanent threshold shifts (Example 10B); type: in vivo, rat; settings: treatment after PTS at 4 weeks; oral capsaicin 5 mg/kg 3 days, ETA 1 mg/kg s.c. day 2, three weeks
Description: FIG. 23A is a schematic showing the experimental paradigm used in Example 10B. Pre-treatment baseline ABRs were performed in naïve male Wistar rats. The rats were then used either as sham controls (no noise exposure) or exposed-noise (122 dB, OBN centered at 16 kHz for 1 hour). Post noise exposure ABRs were repeated at 4 weeks to establish permanent threshold shifts (PTS). […] Final ABR threshold values were evaluated at week 9 post noise exposure.
Values shown in FIGS. 23A-23C and otherwise provided with respect to this Example 10B are expressed as the mean±SEM. Statistical significance was analyzed using the ANOVA and Tukey's host hoc analysis.

[4] = 25 mg ETA twice a week for 24 weeks; Matteson et al.; cited from earlier work
[5] = TT ETA rescue at 24 hours post NE
[6] = TT ETA rescue within 2 hours post NE
[7] = TT-ETA 250 μg/50 μl, 3 day pre-treatment, 21 days post NE
[8] = s.c. ETA rescue at 24 hours post NE
[9] = s.c. ETA rescue within 2 hours post NE
[10] = subcutaneous ETA 3 mg/kg, 3 day pre-treatment, 21 days post NE

etanercept
increase in hearing threshold (hearing loss) ([1]; ETA pre-treatment sc or TT, 3 or 7 days prior to NE (FIG. 17.A)): 5-10 dB
threshold shifts ([1]; TT ETA at 2 h post NE (FIG. 17.B)): 20-37.5 dB
ABR threshold shift at 8 kHz [1, 5]: 22.5±2.9 dB
ABR threshold shift at 16 kHz [1, 5]: 31.25±3.2 dB
ABR threshold shift at 32 kHz [1, 5]: 37.5±3.7 dB
ABR threshold shift at 8 kHz [1, 6]: 20±2.6 dB
ABR threshold shift at 16 kHz [1, 6]: 30±2.7 dB
ABR threshold shift at 32 kHz [1, 6]: 33.75±2.7 dB
ABR threshold shift at 8 kHz ([1]; TT ETA, 7 day pretreatment): 16.25±3.25 dB
ABR threshold shift at 16 kHz ([1]; TT ETA, 7 day pretreatment): 16.25±3.75 dB
ABR threshold shift at 32 kHz ([1]; TT ETA, 7 day pretreatment): 16.25±4.6 dB
ABR threshold shift at 8 kHz [1, 7]: 1.25±1.25 dB
ABR threshold shift at 16 kHz [1, 7]: 0 dB
ABR threshold shift at 32 kHz [1, 7]: 3.75±1.8 dB
Wave 1 amplitude versus sound intensity ([1]; capsaicin 5 mg/kg oral, ETA 1 mg/kg, noise exposure (FIG. 18.B)): partial restoration
ABR threshold shift at 8 kHz ([1]; s.c ETA, 7 day pretreatment): 12.5±3.6 dB
ABR threshold shift at 16 kHz ([1]; s.c ETA, 7 day pretreatment): 15±5 dB
ABR threshold shift at 32 kHz ([1]; s.c ETA, 7 day pretreatment): 16.25±5.3 dB
ABR threshold shift at 8 kHz [1, 8]: 21.25±3.9 dB
ABR threshold shift at 16 kHz [1, 8]: 22.5±4.9 dB
ABR threshold shift at 32 kHz [1, 8]: 26.25±5.6 dB
ABR threshold shift at 8 kHz [1, 9]: 9.16±2.6 dB
ABR threshold shift at 16 kHz [1, 9]: 15.8±4.5 dB
ABR threshold shift at 32 kHz [1, 9]: 20.8±6.0 dB
ABR threshold shift at 8 kHz [1, 10]: 4±1.6 dB
ABR threshold shift at 16 kHz [1, 10]: 8±2.5 dB
ABR threshold shift at 32 kHz [1, 10]: 11±18 dB
threshold shift ([1]; subcutaneous ETA at 2 h post NE (FIG. 17.B)): 10-25 dB
TRPV1, TNF-α and COX2 expression ([2]; ETA rescue by TT injection at 24 hours): unable to decrease the TRPV1, TNF-α and COX2 to basal levels
NE induced up regulation of TRPV1, TNF-α, NOX3, COX2, iNOS and Bax ([2]; pretreatment with ETA): prevents the NE induced up regulation
average hearing threshold shifts at 9 weeks [3]: 25-38 dB
side effects [4]: no side effects
